{
  "source": "ChEMBL document CHEMBL1201862",
  "about": "“PubChem BioAssay data set” (2004)",
  "key": {"Cytochrome P450 2C9 [1]": {"molecular_target": "T1, Cytochrome P450 2C9 (Homo sapiens, UniProt P11712)", "T1 sequence (P11712 whole entry)": "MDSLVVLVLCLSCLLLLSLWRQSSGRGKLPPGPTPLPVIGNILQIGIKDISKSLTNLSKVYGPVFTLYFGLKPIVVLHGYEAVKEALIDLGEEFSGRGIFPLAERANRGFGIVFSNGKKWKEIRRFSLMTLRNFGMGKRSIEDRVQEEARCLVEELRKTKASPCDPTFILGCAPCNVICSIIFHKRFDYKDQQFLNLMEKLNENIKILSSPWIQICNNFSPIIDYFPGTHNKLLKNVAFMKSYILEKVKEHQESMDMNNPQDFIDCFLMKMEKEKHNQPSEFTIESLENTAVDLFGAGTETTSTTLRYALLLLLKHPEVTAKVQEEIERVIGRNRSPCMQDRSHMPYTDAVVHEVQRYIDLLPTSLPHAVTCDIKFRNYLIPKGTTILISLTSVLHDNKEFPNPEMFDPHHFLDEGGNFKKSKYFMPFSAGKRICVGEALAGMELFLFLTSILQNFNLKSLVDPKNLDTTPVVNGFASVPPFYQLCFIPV", "conditions": "Potency"}, "Cytochrome P450 3A4 [2]": {"molecular_target": "T2, Cytochrome P450 3A4 (Homo sapiens, UniProt P08684)", "T2 sequence (P08684 whole entry)": "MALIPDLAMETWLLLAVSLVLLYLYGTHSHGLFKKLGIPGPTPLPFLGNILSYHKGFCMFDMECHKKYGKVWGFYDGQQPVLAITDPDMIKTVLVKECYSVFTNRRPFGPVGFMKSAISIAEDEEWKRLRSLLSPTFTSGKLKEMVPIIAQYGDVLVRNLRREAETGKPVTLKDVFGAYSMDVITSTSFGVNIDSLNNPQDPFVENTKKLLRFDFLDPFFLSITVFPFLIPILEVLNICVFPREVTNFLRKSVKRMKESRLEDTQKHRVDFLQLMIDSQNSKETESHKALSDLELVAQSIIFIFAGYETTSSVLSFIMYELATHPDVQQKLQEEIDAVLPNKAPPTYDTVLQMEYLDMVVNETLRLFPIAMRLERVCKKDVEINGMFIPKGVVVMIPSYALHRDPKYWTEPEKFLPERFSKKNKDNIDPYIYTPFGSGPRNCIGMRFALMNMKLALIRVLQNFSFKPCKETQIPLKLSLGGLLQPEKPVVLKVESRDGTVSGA", "conditions": "Potency"}, "Saccharomyces cerevisiae": {"tested_on": "Saccharomyces cerevisiae", "assay": "NALP1 inhibitor project selectivity study, Caspase-1/ASC signal blockade IC50 in S. cerevisiae (AID 488863)", "type": "functional, organism-based"}, "Prothrombin": {"molecular_target": "Prothrombin (Homo sapiens, UniProt P00734)", "assay": "Thrombin 1536 HTS Dose Response Confirmation. [Related pubchem assays: 1046 (Thrombin 1536 HTS; hits were confirmed in this assay)]", "type": "functional"}, "[3]": {"molecular_target": "NACHT, LRR and PYD domains-containing protein 1 (Homo sapiens, UniProt Q9C000)", "assay": "NALP1 inhibitors in yeast, dose response, luminescent (AID 488860)", "type": "functional"}, "Cytochrome P450 2C9 [4]": {"molecular_target": "T1, Cytochrome P450 2C9"}, "Cytochrome P450 3A4 [5]": {"molecular_target": "T2, Cytochrome P450 3A4"}, "CAAX prenyl protease 2 [6]": {"molecular_target": "T3, CAAX prenyl protease 2 (Homo sapiens, UniProt Q9Y256)", "T3 sequence (Q9Y256 whole entry)": "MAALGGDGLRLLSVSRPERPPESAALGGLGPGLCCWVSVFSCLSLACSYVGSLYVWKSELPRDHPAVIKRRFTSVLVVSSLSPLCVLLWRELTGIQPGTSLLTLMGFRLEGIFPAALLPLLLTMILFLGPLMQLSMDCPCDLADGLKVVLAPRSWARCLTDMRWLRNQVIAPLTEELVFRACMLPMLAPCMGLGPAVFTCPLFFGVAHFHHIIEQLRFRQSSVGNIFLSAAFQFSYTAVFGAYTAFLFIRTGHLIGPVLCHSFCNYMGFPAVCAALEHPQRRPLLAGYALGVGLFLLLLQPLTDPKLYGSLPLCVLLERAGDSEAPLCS", "assay": "human Rce1 protease inhibitors, dose response, biochemical, yeast membranes, quenched-peptide fluorescence, cherry-pick (AID 588849)"}, "Trypsin": {"molecular_target": "Trypsin (Sus scrofa, UniProt P00761)", "sequence (P00761 whole entry)": "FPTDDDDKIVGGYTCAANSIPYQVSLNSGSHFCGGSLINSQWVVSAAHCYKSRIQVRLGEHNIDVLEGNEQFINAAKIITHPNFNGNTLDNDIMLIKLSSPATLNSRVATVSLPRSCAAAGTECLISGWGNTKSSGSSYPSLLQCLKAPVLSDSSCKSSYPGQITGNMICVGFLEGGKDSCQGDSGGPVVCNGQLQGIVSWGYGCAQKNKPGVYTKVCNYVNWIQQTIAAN", "assay": "porcine trypsin inhibitors, dose response, selectivity assay for Rce1 protease inhibitor project, biochemical, quenched peptide fluorescence, cherry-pick (AID 488789)"}, "CAAX prenyl protease 2 [7]": {"molecular_target": "CAAX prenyl protease 2 (Saccharomyces cerevisiae S288c, UniProt Q03530)", "sequence (Q03530 whole entry)": "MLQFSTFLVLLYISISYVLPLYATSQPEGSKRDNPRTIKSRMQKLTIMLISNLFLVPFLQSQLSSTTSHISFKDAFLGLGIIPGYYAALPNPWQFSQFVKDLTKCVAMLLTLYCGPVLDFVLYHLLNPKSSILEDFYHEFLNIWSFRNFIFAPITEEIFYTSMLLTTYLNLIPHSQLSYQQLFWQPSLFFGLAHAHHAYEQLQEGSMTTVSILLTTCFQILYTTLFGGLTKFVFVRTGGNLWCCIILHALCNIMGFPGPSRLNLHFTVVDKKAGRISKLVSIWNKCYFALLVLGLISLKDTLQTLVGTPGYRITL", "type": "biochemical"}, "Streptokinase A": {"molecular_target": "T4, Streptokinase A (Streptococcus pyogenes serotype M1, UniProt P10520)", "T4 sequence (P10520 whole entry)": "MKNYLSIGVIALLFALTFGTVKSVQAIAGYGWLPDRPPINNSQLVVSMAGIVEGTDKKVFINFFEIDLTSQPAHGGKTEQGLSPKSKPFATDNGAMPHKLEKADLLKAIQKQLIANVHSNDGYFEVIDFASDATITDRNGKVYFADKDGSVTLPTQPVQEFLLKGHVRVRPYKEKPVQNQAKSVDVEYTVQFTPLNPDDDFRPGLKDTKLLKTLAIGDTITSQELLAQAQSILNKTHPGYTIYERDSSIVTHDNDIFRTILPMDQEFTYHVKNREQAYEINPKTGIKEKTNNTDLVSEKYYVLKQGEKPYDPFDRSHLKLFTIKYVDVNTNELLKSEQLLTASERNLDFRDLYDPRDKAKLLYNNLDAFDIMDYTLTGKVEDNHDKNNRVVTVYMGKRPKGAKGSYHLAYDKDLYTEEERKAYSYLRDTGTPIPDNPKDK", "assay": "S. pyogenes streptokinase expression inhibitors, potency, dose response, plasminogen activation absorbance, OD405 (AID 1914);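 note: secreted streptokinase activity via plasminogen activation per viability signal from cell pellet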", "type": "functional, Streptococcus pyogenes M1 GAS"}, "[8]": {"tested_on": "Streptococcus sp. 'group A'", "assay": "growth inhibition of control SK(-) GAS strain, dose response, counter-screen for streptokinase expression inhibitor project, luminescence, kanamycin, BacTiterGlo, confirmation (AID 1900)", "type": "functional, organism-based"}, "Streptococcus": {"tested_on": "Streptococcus", "assay": "Group A Streptococcus viability loss, dose response, counter-screen for streptokinase expression inhibitor project, luminescence, BacTiterGlo (AID 1915);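 note: potency for reduction of bacterial viability or growth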", "type": "functional, organism-based"}, "[9]": {"molecular_target": "Voltage-dependent T-type calcium channel subunit alpha-1H (Homo sapiens, UniProt O95180)", "sequence (O95180 whole entry)": "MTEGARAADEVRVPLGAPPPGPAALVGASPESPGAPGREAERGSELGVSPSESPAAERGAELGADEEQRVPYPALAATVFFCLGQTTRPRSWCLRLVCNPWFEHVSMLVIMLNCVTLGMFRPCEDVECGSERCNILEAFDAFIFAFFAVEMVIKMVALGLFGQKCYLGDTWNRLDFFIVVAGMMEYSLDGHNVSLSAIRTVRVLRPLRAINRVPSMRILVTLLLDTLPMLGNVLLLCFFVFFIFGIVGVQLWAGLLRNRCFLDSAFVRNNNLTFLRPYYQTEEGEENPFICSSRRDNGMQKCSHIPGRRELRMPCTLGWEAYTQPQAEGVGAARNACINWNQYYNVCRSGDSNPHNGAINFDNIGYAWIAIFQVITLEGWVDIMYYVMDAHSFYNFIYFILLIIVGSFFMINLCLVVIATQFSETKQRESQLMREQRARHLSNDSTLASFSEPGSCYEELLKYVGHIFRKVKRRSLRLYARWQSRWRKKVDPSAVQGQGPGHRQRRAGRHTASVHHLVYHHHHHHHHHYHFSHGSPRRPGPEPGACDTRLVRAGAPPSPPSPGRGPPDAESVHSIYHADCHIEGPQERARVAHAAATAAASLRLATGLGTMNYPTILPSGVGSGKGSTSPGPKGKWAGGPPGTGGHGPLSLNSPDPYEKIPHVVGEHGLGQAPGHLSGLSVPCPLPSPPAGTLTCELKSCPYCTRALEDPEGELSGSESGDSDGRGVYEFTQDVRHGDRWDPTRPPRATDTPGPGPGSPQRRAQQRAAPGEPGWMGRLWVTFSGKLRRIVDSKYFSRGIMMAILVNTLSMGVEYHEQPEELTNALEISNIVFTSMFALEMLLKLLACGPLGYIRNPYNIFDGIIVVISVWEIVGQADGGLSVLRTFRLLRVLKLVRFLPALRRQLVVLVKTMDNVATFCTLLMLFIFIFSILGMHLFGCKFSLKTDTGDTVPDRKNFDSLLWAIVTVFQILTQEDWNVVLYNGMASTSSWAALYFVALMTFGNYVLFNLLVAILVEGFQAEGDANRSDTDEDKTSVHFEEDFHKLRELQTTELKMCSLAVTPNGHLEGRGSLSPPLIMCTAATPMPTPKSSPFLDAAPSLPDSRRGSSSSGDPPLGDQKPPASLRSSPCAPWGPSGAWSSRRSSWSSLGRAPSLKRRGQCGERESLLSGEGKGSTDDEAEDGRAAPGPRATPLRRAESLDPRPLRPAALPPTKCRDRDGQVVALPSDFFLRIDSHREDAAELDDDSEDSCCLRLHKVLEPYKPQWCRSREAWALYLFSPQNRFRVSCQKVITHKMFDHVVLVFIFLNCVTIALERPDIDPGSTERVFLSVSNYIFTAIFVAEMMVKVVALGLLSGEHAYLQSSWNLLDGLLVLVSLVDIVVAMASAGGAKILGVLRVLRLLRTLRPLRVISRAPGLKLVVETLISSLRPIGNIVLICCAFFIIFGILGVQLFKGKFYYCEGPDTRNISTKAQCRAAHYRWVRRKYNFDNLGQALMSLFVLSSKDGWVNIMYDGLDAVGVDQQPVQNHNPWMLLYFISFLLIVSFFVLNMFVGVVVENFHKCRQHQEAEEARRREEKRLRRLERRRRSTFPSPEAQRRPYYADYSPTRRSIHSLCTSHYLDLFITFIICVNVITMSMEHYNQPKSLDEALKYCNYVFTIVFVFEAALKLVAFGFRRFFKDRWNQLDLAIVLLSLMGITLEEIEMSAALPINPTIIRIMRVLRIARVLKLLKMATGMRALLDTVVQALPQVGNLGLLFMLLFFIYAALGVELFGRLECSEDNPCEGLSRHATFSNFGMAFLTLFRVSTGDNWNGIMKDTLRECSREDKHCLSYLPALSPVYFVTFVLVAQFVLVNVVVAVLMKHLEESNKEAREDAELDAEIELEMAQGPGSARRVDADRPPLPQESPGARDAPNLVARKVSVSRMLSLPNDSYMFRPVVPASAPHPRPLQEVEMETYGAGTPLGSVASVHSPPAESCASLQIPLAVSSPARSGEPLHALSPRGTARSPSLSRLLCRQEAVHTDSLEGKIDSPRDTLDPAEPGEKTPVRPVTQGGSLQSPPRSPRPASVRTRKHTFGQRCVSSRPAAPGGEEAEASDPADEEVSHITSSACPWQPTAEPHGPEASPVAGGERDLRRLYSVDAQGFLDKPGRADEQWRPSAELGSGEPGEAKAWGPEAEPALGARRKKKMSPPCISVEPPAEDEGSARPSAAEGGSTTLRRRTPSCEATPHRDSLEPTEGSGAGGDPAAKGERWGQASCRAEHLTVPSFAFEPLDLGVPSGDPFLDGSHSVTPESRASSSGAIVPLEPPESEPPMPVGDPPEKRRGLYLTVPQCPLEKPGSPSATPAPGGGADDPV", "type": "functional"}, "Cytochrome P450 1A2": {"molecular_target": "T5, Cytochrome P450 1A2 (Homo sapiens, UniProt P05177)", "T5 sequence (P05177 whole entry)": "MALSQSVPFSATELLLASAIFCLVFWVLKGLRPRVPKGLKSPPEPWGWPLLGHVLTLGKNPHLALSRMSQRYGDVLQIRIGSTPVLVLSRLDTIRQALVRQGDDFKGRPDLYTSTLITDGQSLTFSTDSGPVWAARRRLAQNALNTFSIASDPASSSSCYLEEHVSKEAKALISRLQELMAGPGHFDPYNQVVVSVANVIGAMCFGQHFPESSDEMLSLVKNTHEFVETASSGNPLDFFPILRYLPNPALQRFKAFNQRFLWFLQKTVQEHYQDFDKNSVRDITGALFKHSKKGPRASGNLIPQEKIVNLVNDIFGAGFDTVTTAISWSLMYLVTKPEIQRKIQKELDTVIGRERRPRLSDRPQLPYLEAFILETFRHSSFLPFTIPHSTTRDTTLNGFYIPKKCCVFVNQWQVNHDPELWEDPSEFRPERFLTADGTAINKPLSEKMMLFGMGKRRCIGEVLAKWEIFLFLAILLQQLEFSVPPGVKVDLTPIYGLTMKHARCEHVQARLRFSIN"}, "Cytochrome P450 3A4 [10]": {"molecular_target": "T2, Cytochrome P450 3A4", "remark": "listed apart in the source"}, "Cytochrome P450 2C9 [11]": {"molecular_target": "T1, Cytochrome P450 2C9", "remark": "listed apart in the source"}},
  "note": "Active and inactive are the calls of the source.",
  "data": [
    {"smiles": "COc1cc2c(cc1O)-c1c(O)c(OC)cc3c1[C@H](C2)N(C)CC3", "values": [
      {"measurement": "AC50", "setting": "Cytochrome P450 2C9 [1]", "value": "31.6 µM (inconclusive)"},
      {"measurement": "AC50", "setting": "Cytochrome P450 3A4 [2]", "value": "20 µM (inconclusive)"}
    ]},
    {"smiles": "Cc1ccc2c(c1)c1c3n2CCCNC3CCC1", "note": "(stereo not drawn)", "values": [
      {"measurement": "IC50", "setting": "Saccharomyces cerevisiae", "value": "87.6 µM (active)"},
      {"measurement": "IC50", "setting": "Prothrombin", "value": "> 50 µM (not active)"},
      {"measurement": "IC50", "setting": "[3]", "value": "> 100 µM (inactive)"}
    ]},
    {"smiles": "CC(=O)[C@@H]1CC[C@@H]2[C@@H]3CCC4=CC(=O)CC[C@@]4(C)[C@H]3CC[C@]21C", "values": [
      {"measurement": "AC50", "setting": "Cytochrome P450 2C9 [4]", "value": "15.8 µM (inconclusive)"},
      {"measurement": "AC50", "setting": "Cytochrome P450 2C9 [1]", "value": "39.8 µM (inconclusive)"},
      {"measurement": "AC50", "setting": "Cytochrome P450 3A4 [5]", "value": "inconclusive"}
    ]},
    {"smiles": "COc1cc2nc3c(O)n(CCN4CCOCC4)cnc-3c2cc1OC", "values": [
      {"measurement": "AC50", "setting": "CAAX prenyl protease 2 [6]", "value": "9.95 µM (active)"},
      {"measurement": "AC50", "setting": "Trypsin", "value": "16.1 µM (active)"}
    ]},
    {"smiles": "CCCCNc1c(-c2ccc(SC(C)CC)c(OC)c2)nc2ccc(C)cn12", "note": "(stereo not drawn)", "values": [
      {"measurement": "AC50", "setting": "CAAX prenyl protease 2 [6]", "value": "32.5 µM (active)"},
      {"measurement": "AC50", "setting": "CAAX prenyl protease 2 [7]", "value": "39.7 µM (active)"},
      {"measurement": "EC50", "setting": "Streptokinase A", "value": "8.79 µM (active)"},
      {"measurement": "EC50", "setting": "[8]", "value": "3.09 µM (active)"},
      {"measurement": "AC50", "setting": "Trypsin", "value": "2.63 µM (active)"},
      {"measurement": "EC50", "setting": "Streptococcus", "value": "10.2 µM (active)"}
    ]},
    {"smiles": "O=S(=O)(Nc1ccc(S(=O)(=O)N2CCCCC2)cc1)c1ccc(Br)s1", "values": [
      {"measurement": "EC50", "setting": "[9]", "value": "3.58 µM (active)"}
    ]},
    {"smiles": "c1coc(-c2ccnc3ncnn23)c1", "values": [
      {"measurement": "AC50", "setting": "CAAX prenyl protease 2 [6]", "value": "3.88 µM (active)"},
      {"measurement": "AC50", "setting": "CAAX prenyl protease 2 [7]", "value": "24.5 µM (active)"}
    ]},
    {"smiles": "CN(C)c1ccc(/C=C2\\SC(=S)N(Nc3ncc(C(F)(F)F)cc3Cl)C2=O)cc1", "values": [
      {"measurement": "AC50", "setting": "Cytochrome P450 1A2", "value": "5.01 µM (inconclusive)"},
      {"measurement": "AC50", "setting": "Cytochrome P450 3A4 [10]", "value": "14.1 µM (inconclusive)"},
      {"measurement": "EC50", "setting": "[9]", "value": "2.86 µM (active)"},
      {"measurement": "AC50", "setting": "Cytochrome P450 2C9 [11]", "value": "inconclusive"}
    ]}
  ]
}
